The values below come from patent publication US9914730B2, “Azaquinazoline inhibitors of Atypical protein Kinase C” (Ignyta, Inc., priority 2012, dated 2018).

The target in the assay is T1, full-length human PKCι (Homo sapiens, UniProt P41743).
T1 construct: Recombinant, full-length human PKCι expressed in Sf21 insect cells is also commercially available; purchased; host or cells: Sf21 insect cells
T1 sequence (P41743 1-596): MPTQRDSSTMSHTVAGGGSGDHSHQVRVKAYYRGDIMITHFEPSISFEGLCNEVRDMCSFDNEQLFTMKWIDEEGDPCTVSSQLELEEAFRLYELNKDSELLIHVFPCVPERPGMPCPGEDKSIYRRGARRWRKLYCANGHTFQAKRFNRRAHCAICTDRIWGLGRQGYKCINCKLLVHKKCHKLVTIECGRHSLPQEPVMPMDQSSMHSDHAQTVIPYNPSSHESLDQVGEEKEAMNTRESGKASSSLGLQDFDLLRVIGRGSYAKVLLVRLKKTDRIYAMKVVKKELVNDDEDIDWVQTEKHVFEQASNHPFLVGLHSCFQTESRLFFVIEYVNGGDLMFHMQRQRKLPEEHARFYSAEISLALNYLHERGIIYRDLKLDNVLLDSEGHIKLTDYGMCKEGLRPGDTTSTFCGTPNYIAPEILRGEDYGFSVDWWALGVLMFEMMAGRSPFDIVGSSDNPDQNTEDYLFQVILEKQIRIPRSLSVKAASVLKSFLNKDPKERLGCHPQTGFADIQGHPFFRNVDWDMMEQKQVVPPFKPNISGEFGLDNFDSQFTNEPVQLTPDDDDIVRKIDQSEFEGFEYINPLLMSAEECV
The assay is described as follows: PKCι IC50 IMAP assay, full-length PKCι at 150 μM ATP. Format: biochemical. Conditions: read-out: IC50 in IMAP assay against full length PKCi at 150 μM ATP. The procedure, abridged:
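Full-length human PKCι from Sf21 cells, typically 15 pM, with 100 nM 5FAM-PKCε pseudosubstrate peptide and 150 μM ATP (5× apparent KM), 60 min at room temperature, 4% DMSO. IMAP fluorescence polarisation read-out; inhibition normalised to no-compound and no-enzyme controls, IC50 from curve fit.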

For `O=C1CN(c2nc(-c3ccncc3)nc3cnccc23)CCN1` [Example 27, 4-[2-(pyridin-4-yl)pyrido[3,4-d]-pyrimidin-4-yl]-piperazin-2-one], the concentration for half-maximal inhibition (IC50) was 10000 to 40000 nM.

With `O[C@H]1Cc2ccccc2[C@@H]1Nc1cc(-c2nc(N3CCNCC3)c3c(C4CC4)cncc3n2)ccn1` [Example 2141, (1S,2S)-1-[4-(5-Cyclopropyl-4-piperazin-1-yl-pyrido[3,4-d]pyrimidin-2-yl)-pyridin-2-ylamino]-indan-2-ol], the IC50 was under 100 nM.

`CN1Cc2ccc(Nc3cc(-c4nc(N5CCC(O)CC5)c5c(C6CC6)cncc5n4)ccn3)cc2C1` [Example 821, 1-{5-Cyclopropyl-2-[2-(2-methyl-2,3-dihydro-1H-isoindol-5-ylamino)-pyridin-4-yl]-pyrido[3,4-d]pyrimidin-4-yl}-piperidin-4-ol]: the half-maximal inhibitory concentration (IC50) is under 100 nM. As for `Fc1cccc(F)c1-c1cc2c(-c3nc(N4CCNCC4)c4c(C5CC5)cncc4n3)ccnc2[nH]1` [Example 2145, 5-Cyclopropyl-2-[2-(2,6-difluoro-phenyl)-1H-pyrroIo[2,3-b]pyridin-4-yl]-4-piperazin-1-yl-pyrido[3,4-d]pyrimidine], the 50% inhibitory concentration (IC50) was under 100 nM. `CC(=O)N1CCC(Nc2nc(-c3ccnc(Nc4c(F)cccc4F)c3)nc3cncc(C4CC4)c23)CC1` [Example 2085, 1-(4-{5-Cyclopropyl-2-[2-(2,6-difluoro-phenylamino)-pyridin-4-yl]-pyrido[3,4-d]pyrimidin-4-ylamino}-piperidin-1-yl)-ethanone]: the IC50 lay within 100 to 1000 nM. As for `Fc1cc(Nc2cc(-c3nc(N4CCNCC4)c4c(C5CC5)cncc4n3)ccn2)c(F)c(F)n1` [Example 682, [4-(5-Cyclopropyl-4-piperazin-1-yl-pyrido[3,4-d]pyrimidin-2-yl)-pyridin-2-yl]-(2,3,6-trifluoro-pyridin-4-yl)-amine], the figure is 100 to 1000 nM; as for `Cc1cccc(Nc2cc(-c3nc(N4CCNCC4)c4c(C5CC5)cncc4n3)ccn2)c1F` [Example 574, [4-(5-Cyclopropyl-4-piperazin-1-yl-pyrido[3,4-d]pyrimidin-2-yl)-pyridin-2-yl]-(2-fluoro-3-methyl-phenyl)-amine], under 100 nM. Turning to `Fc1cccc(F)c1Nc1cc(-c2nc(N3CCNC4CC43)c3c(C4CC4)cncc3n2)ccn1` (stereo not shown) [Example 538, {4-[5-Cyclopropyl-4-(2,5-diaza-bicyclo-[4.1.0]hept-2-yl)-pyrido[3,4-d]pyrimidin-2-yl]-pyridin-2-yl}-(2,6-difluoro-phenyl)-amine], the IC50 is under 100 nM.

On to `COc1cncc2nc(-c3ccnc(NC(=O)CN4CCOCC4)c3)nc(N3CCNCC3)c12` [Example 209, N-[4-(5-Methoxy-4-piperazin-1-yl-pyrido[3,4-d]pyrimidin-2-yl)-pyridin-2-yl]-2-morpholin-4-yl-acetamide], for which the IC50 was 100 to 1000 nM. For `OC[C@@H](O)CN1CCN(c2nc(-c3ccnc(Nc4ccccc4)c3)nc3cncc(C4CC4)c23)CC1` [Example 607, (S)-3-{4-[5-Cyclopropyl-2-(2-phenylamino-pyridin-4-yl)-pyrido[3,4-d]pyrimidin-4-yl]-piperazin-1-yl}-propane-1,2-diol], the half-inhibitory concentration (IC50) lay in the range of 100 to 1000 nM. For the molecule `N#Cc1ccnc(Nc2cc(-c3nc(N4CCC(O)CC4)c4c(C5CC5)cncc4n3)ccn2)c1` [Example 482, 2-{4-[5-Cyclopropyl-4-(4-hydroxy-piperidin-1-yl)-pyrido[3,4-d]pyrimidin-2-yl]-pyridin-2-ylamino}-isonicotinonitrile], the half-maximal inhibitory concentration (IC50) lay within 100 to 1000 nM. In the case of `C[C@H]1CN(c2nc(-c3ccnc4[nH]c(C(C)(C)C)cc34)nc3cncc(C4CC4)c23)CCN1` [Example 2001, 2-(2-tert-Butyl-1H-pyrrolo[2,3-b]pyridin-4-yl)-5-cyclopropyl-4-((S)-3-methyl-piperazin-1-yl)-pyrido[3,4-d]pyrimidine], the IC50 was under 100 nM.

Turning to `NC(=O)c1ccc(Nc2cc(-c3nc(N4CCNCC4)c4c(C5CC5)cncc4n3)ccn2)cc1` [Example 742, 4-[4-(5-Cyclopropyl-4-piperazin-1-yl-pyrido[3,4-d]pyrimidin-2-yl)-pyridin-2-ylamino]-benzamide], the IC50 was under 100 nM. Take `FC(F)(F)c1ncccc1Nc1cc(-c2nc(N3CCNCC3)c3c(C4CC4)cncc3n2)ccn1` [Example 536, [4-(5-Cyclopropyl-4-piperazin-1-yl-pyrido[3,4-d]pyrimidin-2-yl)-pyridin-2-yl]-(2-trifluoromethyl-pyridin-3-yl)-amine]: the IC50 was in the range of 1000 to 10000 nM. Regarding `CC(C)n1ccc(Nc2cc(-c3nc(N4CCNC(C)(C)C4)c4c(C5CC5)cncc4n3)ccn2)n1` [Example 2018, {4-[5-Cyclopropyl-4-(3,3-dimethyl-piperazin-1-yl)-pyrido[3,4-d]pyrimidin-2-yl]-pyridin-2-yl}-(1-isopropyl-1H-pyrazol-3-yl)-amine], the 50% inhibitory concentration (IC50) is under 100 nM.

On to `COc1cncc2nc(-c3ccnc(NC(=O)[C@H](C)c4ccccc4)c3)nc(N3CCNCC3)c12` [Example 408, (R)-N-[4-(5-Methoxy-4-piperazin-1-yl-pyrido[3,4-d]pyrimidin-2-yl)-pyridin-2-yl]-2-phenyl-propionamide], for which the IC50 is 100 to 1000 nM. As for `COc1cncc2nc(-c3ccnc(NC(=O)Cc4cccc(C(F)(F)F)c4)c3)nc(N3CCNCC3)c12` [Example 373, N-[4-(5-Methoxy-4-piperazin-1-yl-pyrido[3,4-d]pyrimidin-2-yl)-pyridin-2-yl]-2-(3-trifluoromethyl-phenyl)-acetamide], the figure is under 100 nM; as for `CN(c1nc(-c2ccnc3[nH]c(C(F)(F)F)cc23)nc2cncc(C3CC3)c12)C1CCNCC1` [Example 2070, [5-Cyclopropyl-2-(2-trifluoromethyl-1H-pyrrolo[2,3-b]pyridin-4-yl)-pyrido[3,4-d]pyrimidin-4-yl]-methyl-piperidin-4-yl-amine], under 100 nM; as for `CC(C)(C)c1cc2c(-c3nc(N4CCNCC4)c4c(C5CC5)cnc(C5CC5)c4n3)ccnc2[nH]1` [Example 2190, 2-(2-tert-Butyl-1H-pyrrolo[2,3-b]pyridin-4-yl)-5,8-dicyclopropyl-4-piperazin-1-yl-pyrido[3,4-d]pyrimidine], under 100 nM. In the case of `C[C@H]1CN(c2nc(-c3ccnc(Nc4nc(F)c(F)cc4F)c3)nc3cncc(C4CC4)c23)CCN1` [Example 830, {4-[5-Cyclopropyl-4-((S)-3-methyl-piperazin-1-yl)-pyrido[3,4-d]pyrimidin-2-yl]-pyridin-2-yl}-(3,5,6-trifluoro-pyridin-2-yl)-amine], the IC50 was 1000 to 10000 nM. Regarding `O=C(NCCF)C1CCN(c2nc(-c3ccnc(Nc4c(F)cccc4F)c3)nc3cncc(C4CC4)c23)CC1` [Example 658, 1-{5-Cyclopropyl-2-[2-(2,6-difluoro-phenylamino)-pyridin-4-yl]-pyrido[3,4-d]pyrimidin-4-yl}-piperidine-4-carboxylic acid (2-fluoro-ethyl)-amide], the IC50 was in the range of 1000 to 10000 nM. As for `N#Cc1cccc(Nc2cc(-c3nc(N4CCNCC4)c4c(C5CC5)cncc4n3)ccn2)n1` [Example 746, 6-[4-(5-Cyclopropyl-4-piperazin-1-yl-pyrido[3,4-d]pyrimidin-2-yl)-pyridin-2-ylamino]-pyridine-2-carbonitrile], the IC50 is under 100 nM. As for `c1ccc2cc(Nc3cc(-c4nc(N5CCNCC5)c5c(C6CC6)cncc5n4)ccn3)ncc2c1` [Example 2060, [4-(5-Cyclopropyl-4-piperazin-1-yl-pyrido[3,4-d]pyrimidin-2-yl)-pyridin-2-yl]-iso[D4],[D3]uinolin-3-yl-amine], the IC50 is under 100 nM. As for `c1ccc(C2CN(c3nc(-c4ccncc4)nc4cnccc34)CCN2)cc1` (stereo not shown) [Example 69, 3-phenyl-1-[2-(pyridin-4-yl)-pyrido[3,4-d]-pyrimidin-4-yl]-piperazine], the figure is 10000 to 40000 nM; as for `FC(F)(F)c1cc2c(-c3nc(N4CCNCC4)c4c(C5CCCC5)cncc4n3)ccnc2[nH]1` [Example 2105, 5-Cyclopentyl-4-piperazin-1-yl-2-(2-trifluoromethyl-1H-pyrrolo[2,3-b]pyridin-4-yl)-pyrido[3,4-d]pyrimidine], under 100 nM. Take `COc1cncc2nc(-c3ccnc(Nc4cc(C(N)=O)ccn4)c3)nc(N3CCNCC3)c12` [Example 379, 2-[4-(5-Methoxy-4-piperazin-1-yl-pyrido[3,4-d]pyrimidin-2-yl)-pyridin-2-ylamino]-isonicotinamide]: the concentration for half-maximal inhibition (IC50) was under 100 nM. Take `NC(=O)c1cccc(Nc2cc(-c3nc(N[C@@H]4CCNC4)c4ccncc4n3)ccn2)c1` [Example 308, 3-{4-[4-((R)-Pyrrolidin-3-ylamino)-pyrido[3,4-d]pyrimidin-2-yl]-pyridin-2-ylamino}-benzamide]: the IC50 lay in the range of 100 to 1000 nM. Consider `CC1(C)CN(c2nc(-c3ccnc(Nc4nc(F)cc(F)c4F)c3)nc3cncc(C4CC4)c23)CCN1` [Example 845, {4-[5-Cyclopropyl-4-(3,3-dimethyl-piperazin-1-yl)-pyrido[3,4-d]pyrimidin-2-yl]-pyridin-2-yl}-(3,4,6-trifluoro-pyridin-2-yl)-amine], for which the IC50 was under 100 nM.

What is called IC50 is the concentration at which inhibition is half-maximal.
